± gives the standard deviation of the averaged measurements.
How the values were obtained:
Test in all cases: relative viability vs DMSO control (72 h) (fraction); higher = more viable cells
[1] = tested on: HS729
How it was run: (§1)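 Relative viability is percent growth read by ATPLite and averaged over up to triplicate wells. Sarcoma cells were seeded in 384-well plates to reach 80–90% confluence and given 2.5 µl of serially diluted compound after 24 h, from source plates of 10 mM to 0.0002 mM. Incubation lasted 72 h at 37 °C, 5% CO2, with 0.1% DMSO vehicle and a 5 µM positive control, and the data were rescaled so 1 equals full and 0 equals none.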

[2] = tested on: MES-SA
How it was run: as §1

[3] = tested on: RD
How it was run: as §1

[4] = tested on: SK-LMS-1
How it was run: as §1

[5] = tested on: VA-ES-BJ
How it was run: as §1

O=C1CCc2c(Oc3ccc4c(c3)[C@@H]3[C@H](O4)[C@H]3c3nc4cc(C(F)(F)F)ccc4[nH]3)ccnc2N1 [Lifirafenib]
relative viability
Conditions | [1] | [2] | [3] | [4] | [5]
0.00017 µM | 0.947 ± 0.036 | 0.948 ± 0.0089 | 1.08 ± 0.036 | 1.04 ± 0.038 | 1.037 ± 0.0073
0.00051 µM | 0.921 ± 0.033 | 0.952 ± 0.026 | 1.1 ± 0.061 | 1.06 ± 0.014 | 1.039 ± 0.0061
0.00152 µM | 0.926 ± 0.04 | 0.954 ± 0.026 | 1.09 ± 0.035 | 1.09 ± 0.038 | 1.046 ± 0.0068
0.00457 µM | 0.937 ± 0.043 | 0.955 ± 0.037 | 1.13 ± 0.051 | 1.08 ± 0.048 | 1.03 ± 0.035
0.01372 µM | 0.886 ± 0.053 | 0.961 ± 0.016 | 1.11 ± 0.069 | 1.1 ± 0.044 | 1.03 ± 0.03
0.04115 µM | 0.907 ± 0.048 | 0.974 ± 0.031 | 1.13 ± 0.05 | 1.11 ± 0.046 | 1.04 ± 0.043
0.1235 µM | 0.871 ± 0.023 | 0.985 ± 0.024 | 1.11 ± 0.04 | 1.14 ± 0.085 | 1.09 ± 0.028
0.3704 µM | 0.852 ± 0.029 | 0.992 ± 0.033 | 1.039 ± 0.01 | 1.1 ± 0.036 | 1.108 ± 0.0046
1.111 µM | 0.8769 ± 0.0065 | 0.956 ± 0.012 | 0.947 ± 0.065 | 0.876 ± 0.024 | 1.11 ± 0.022
3.333 µM | 0.851 ± 0.018 | 0.792 ± 0.025 | 0.787 ± 0.026 | 0.6129 ± 0.0051 | 1.09 ± 0.041
10 µM | 0.817 ± 0.036 | 0.493 ± 0.012 | 0.5251 ± 0.005 | 0.438 ± 0.018 | 0.798 ± 0.08

CCOc1cc2ncc(C#N)c(Nc3ccc(OCc4ccccn4)c(Cl)c3)c2cc1NC(=O)/C=C/CN(C)C [Neratinib]
relative viability
Conditions | [1] | [2] | [3] | [4] | [5]
0.00017 µM | 0.944 ± 0.066 | 0.903 ± 0.041 | 1.12 ± 0.072 | 1.03 ± 0.041 | 0.999 ± 0.021
0.00051 µM | 0.922 ± 0.016 | 0.889 ± 0.029 | 1.1 ± 0.069 | 1 ± 0.017 | 1.01 ± 0.037
0.00152 µM | 0.955 ± 0.079 | 0.924 ± 0.02 | 1.11 ± 0.067 | 1.06 ± 0.016 | 1.02 ± 0.014
0.00457 µM | 0.905 ± 0.046 | 0.913 ± 0.03 | 1.11 ± 0.074 | 1.02 ± 0.021 | 1 ± 0.013
0.01372 µM | 0.925 ± 0.031 | 0.897 ± 0.025 | 1.09 ± 0.041 | 1.08 ± 0.025 | 0.969 ± 0.037
0.04115 µM | 0.861 ± 0.032 | 0.869 ± 0.036 | 1.072 ± 0.0048 | 1.06 ± 0.02 | 0.92 ± 0.012
0.1235 µM | 0.771 ± 0.0029 | 0.79 ± 0.011 | 0.95 ± 0.089 | 0.943 ± 0.019 | 0.891 ± 0.02
0.3704 µM | 0.672 ± 0.017 | 0.517 ± 0.034 | 0.714 ± 0.079 | 0.724 ± 0.0085 | 0.734 ± 0.026
1.111 µM | 0.639 ± 0.016 | 0.348 ± 0.02 | 0.562 ± 0.026 | 0.698 ± 0.026 | 0.503 ± 0.017
3.333 µM | 0.645 ± 0.029 | 0.282 ± 0.0036 | 0.384 ± 0.021 | 0.646 ± 0.0067 | 0.483 ± 0.02
10 µM | 0.00633 ± 0.00032 | 0.0189 ± 0.023 | 0.0033 ± 0.0017 | 0.0104 ± 0.0004 | 0.46 ± 0.015

CNC(=O)c1cccc2cc(Oc3ccnc4cc(OCC5(N)CC5)c(OC)cc34)ccc12 [Lucitanib]
relative viability
Conditions | [1] | [2] | [3] | [4] | [5]
0.00017 µM | 1.08 ± 0.061 | 0.983 ± 0.026 | 1.08 ± 0.033 | 1.071 ± 0.0095 | 1.08 ± 0.021
0.00051 µM | 1.07 ± 0.078 | 0.976 ± 0.02 | 1.12 ± 0.04 | 1.09 ± 0.048 | 1.07 ± 0.043
0.00152 µM | 1.07 ± 0.085 | 0.965 ± 0.024 | 1.1 ± 0.035 | 1.056 ± 0.0026 | 1.09 ± 0.011
0.00457 µM | 1.04 ± 0.071 | 0.957 ± 0.019 | 1.13 ± 0.031 | 1.08 ± 0.052 | 1.091 ± 0.0078
0.01372 µM | 1.01 ± 0.062 | 0.978 ± 0.038 | 1.09 ± 0.061 | 1.04 ± 0.05 | 1.1 ± 0.024
0.04115 µM | 0.983 ± 0.047 | 0.955 ± 0.018 | 1.129 ± 0.011 | 1.03 ± 0.031 | 1.11 ± 0.048
0.1235 µM | 0.915 ± 0.065 | 0.95 ± 0.029 | 1.13 ± 0.02 | 0.988 ± 0.013 | 1.12 ± 0.031
0.3704 µM | 0.866 ± 0.068 | 0.961 ± 0.027 | 1.142 ± 0.007 | 0.999 ± 0.019 | 1.13 ± 0.053
1.111 µM | 0.692 ± 0.04 | 0.813 ± 0.021 | 1.144 ± 0.01 | 0.958 ± 0.012 | 1.16 ± 0.058
3.333 µM | 0.618 ± 0.035 | 0.615 ± 0.019 | 1.12 ± 0.074 | 0.8754 ± 0.008 | 1.14 ± 0.086
10 µM | 0.568 ± 0.016 | 0.265 ± 0.017 | 0.9078 ± 0.0037 | 0.758 ± 0.0083 | 0.914 ± 0.039

Cc1cc(F)c(C(=O)Nc2cccc(-c3nncn3C(C)C)n2)cc1-n1cnc(C2CC2)c1 [Selonsertib]
relative viability
Conditions | [1] | [2] | [3] | [4] | [5]
0.00017 µM | 0.914 ± 0.041 | 0.887 ± 0.034 | 1.11 ± 0.017 | 1.07 ± 0.04 | 0.995 ± 0.025
0.00051 µM | 0.917 ± 0.051 | 0.892 ± 0.021 | 1.11 ± 0.037 | 1.08 ± 0.036 | 0.995 ± 0.026
0.00152 µM | 0.92 ± 0.07 | 0.907 ± 0.03 | 1.09 ± 0.015 | 1.08 ± 0.054 | 1.01 ± 0.047
0.00457 µM | 0.973 ± 0.03 | 0.893 ± 0.0091 | 1.1 ± 0.053 | 1.09 ± 0.019 | 0.972 ± 0.059
0.01372 µM | 0.936 ± 0.043 | 0.895 ± 0.03 | 1.11 ± 0.017 | 1.11 ± 0.054 | 0.989 ± 0.039
0.04115 µM | 0.942 ± 0.041 | 0.93 ± 0.025 | 1.1 ± 0.014 | 1.09 ± 0.012 | 0.977 ± 0.039
0.1235 µM | 0.888 ± 0.054 | 0.928 ± 0.034 | 1.09 ± 0.016 | 1.09 ± 0.039 | 0.967 ± 0.039
0.3704 µM | 0.933 ± 0.029 | 0.912 ± 0.024 | 1.11 ± 0.023 | 1.09 ± 0.046 | 0.969 ± 0.011
1.111 µM | 0.875 ± 0.025 | 0.87 ± 0.024 | 1.12 ± 0.02 | 1.04 ± 0.026 | 0.938 ± 0.029
3.333 µM | 0.94 ± 0.031 | 0.78 ± 0.02 | 1.11 ± 0.022 | 1.05 ± 0.029 | 0.918 ± 0.047
10 µM | 0.943 ± 0.11 | 0.368 ± 0.012 | 1.11 ± 0.024 | 0.898 ± 0.022 | 0.848 ± 0.044

COc1cc(Nc2ncc3c(n2)-c2ccc(Cl)cc2C(c2c(F)cccc2OC)=NC3)ccc1C(=O)O [Alisertib]
relative viability
Conditions | [1] | [2] | [3] | [4] | [5]
0.00017 µM | 0.938 ± 0.02 | 0.914 ± 0.021 | 1.08 ± 0.029 | 1.03 ± 0.066 | 0.995 ± 0.029
0.00051 µM | 0.943 ± 0.021 | 0.932 ± 0.031 | 1.1 ± 0.035 | 1.02 ± 0.042 | 0.997 ± 0.029
0.00152 µM | 0.932 ± 0.025 | 0.9332 ± 0.0036 | 1.09 ± 0.028 | 1.01 ± 0.014 | 0.984 ± 0.052
0.00457 µM | 0.888 ± 0.045 | 0.933 ± 0.032 | 1.06 ± 0.015 | 1.02 ± 0.031 | 0.992 ± 0.019
0.01372 µM | 0.859 ± 0.037 | 0.9174 ± 0.0058 | 1.07 ± 0.057 | 1 ± 0.082 | 0.969 ± 0.042
0.04115 µM | 0.879 ± 0.078 | 0.621 ± 0.018 | 1.04 ± 0.053 | 0.806 ± 0.036 | 0.919 ± 0.015
0.1235 µM | 0.793 ± 0.092 | 0.363 ± 0.005 | 0.863 ± 0.031 | 0.772 ± 0.013 | 0.747 ± 0.0085
0.3704 µM | 0.77 ± 0.052 | 0.353 ± 0.0075 | 0.679 ± 0.028 | 0.78 ± 0.016 | 0.604 ± 0.063
1.111 µM | 0.733 ± 0.057 | 0.328 ± 0.014 | 0.517 ± 0.04 | 0.803 ± 0.039 | 0.571 ± 0.03
3.333 µM | 0.689 ± 0.04 | 0.325 ± 0.014 | 0.517 ± 0.037 | 0.815 ± 0.019 | 0.523 ± 0.027
10 µM | 0.716 ± 0.071 | 0.316 ± 0.011 | 0.474 ± 0.031 | 0.678 ± 0.012 | 0.505 ± 0.03

— the supplement of paper PMC10883282
